Results: patent publication US20040029777A1, “Pharmaceutical preparation for taste masking” (TAISHO PHARMACEUTICAL CO., LTD., priority 2002, published 2004)

What was measured:
[1] = In vitro dissolution test, USP apparatus 2 (paddle); format: physicochemical; conditions: distilled water (FIG. 16)
Experimental: Complexes that corresponded to 150 mg of ibuprofen were subjected to dissolution in a USP (United States Pharmacopoeia) dissolution apparatus 2 (Paddle-type) with several kinds of solutions (900 ml). This dissolution test was conducted at 37° C., and a paddle rotation speed of 50 rpm was maintained. A UV detector was used to measure the absorbance of dissolution liquids at regular intervals of up to 120 minutes.
The complexes containing 150 mg of ibuprofen were subjected to dissolution testing using a USP dissolution apparatus 2 (Paddle-type) with several kinds of solutions (900 ml). This dissolution test was conducted at 37° C., at a paddle rotation speed of 50 rpm. A UV detector was used to measure the absorbance of dissolution liquids at regular intervals up to 120 minutes.

[2] = Thermographic analysis (TGA), change in weight at set temperature; format: physicochemical
Experimental: Samples weighing approximately 10 mg were placed in a platinum pan and the change in weight at a set temperature (100° C., 150° C.) was measured using Perkin-Elmer Thermal Analysis Equipment.

CC(C)Cc1ccc(C(C)C(=O)O)cc1 (stereo not drawn) [ibuprofen, Ibuprofen]
dissolution profile saturation [1]: ~40% | TGA change in weight (sublimation) ([2]; 100° C.): showed sublimation | TGA change in weight (sublimation) ([2]; 150° C.): showed sublimation
